Measured values as given in article PMC8062851, “2-Methoxyestradiol and its derivatives inhibit store-operated Ca^2+ entry in T cells: Identification of a new and potent inhibitor” (Biochimica et Biophysica Acta. Molecular Cell Research, 2021).
Like-named read-outs stand apart in the source and are kept apart here.

Columns and labels:
SOCE in Jurkat T cells = experiment: Inhibition during activated SOCE (thapsigargin or anti-CD3 OKT3, 1 mM extracellular Ca2+) in Jurkat T cells; format: cell-based, human; settings: for IC50: Homo sapiens, Jurkat, 1 mM extracellular Ca2+
Description: Jurkat T-lymphocytes, primary human CD4^+ T cells and H1299 cells were pelleted at 450 ×g for 5 min, rat TMBP at 300 ×g for 8 min at room temperature and were resuspended in 1 ml of either standard JMP medium (Jurkat, H1299 and human CD4^+ T cells) or standard DMEM based medium containing 10% fetal bovine serum (FBS) (v/v) (TMBP cells). Resting TMBP cells (day 5–7 after re-stimulation) after the second to fifth re-stimulation were thawed from liquid nitrogen 12 to 40 h prior to Fura2-loading. After pre-incubation for 5 min at 37 °C, cells were incubated with 4 μM Fura2-AM for 15 min at 37 °C. After addition of the dye, cells were kept in the dark. Afterwards, cells and the dye were diluted by addition of 4 ml standard medium and incubated for another 15 min. Cells were washed twice in Ca^2+ buffer (140 mM NaCl, 5 mM KCl, 1 mM MgSO4, 1 mM CaCl2, 1 mM NaH2PO4, 20 mM HEPES, 5.5 mM glucose; pH 7.4 (NaOH), sterile filtered) and were diluted to a concentration of 2*10^6 cells/ml. Subsequently, cells were kept at room temperature for 20 min for de-esterification before the start of the first measurement.
10^6 Jurkat T-lymphocytes, H1299 cells, TMBP cells or 4*10^6 primary human CD4^+ T cells were added into a 10 × 10 mm quartz glass cuvette (Hellma Analytics, Germany) that was placed into a fluorescence spectrophotometer (F-2710, Hitachi, Japan). In experiments using a Ca^2+ free/Ca^2+ re-addition protocol, cells were pelleted as described for Fura2 loading and Ca^2+ buffer was exchanged by 1 ml nominal Ca^2+ free buffer (140 mM NaCl, 5 mM KCl, 1 mM MgSO4, 1 mM NaH2PO4, 20 mM HEPES, 5.5 mM glucose; pH 7.4 (NaOH), sterile filtered) immediately before starting the measurement. The measurement was controlled by FL Solutions (Version 4.1, Hitachi High-Technologies Corporation). Fura2 was alternatively excited every 2 s at 340 ± 5 nm and 380 ± 5 nm, each 400 ms apart. Fluorescence intensity was measured at an emission wavelength of 495 ± 5 nm for both excitation wavelengths.
Finally, every measurement was calibrated using 0.1% (v/v) Triton X-100 to obtain a maximal ratio and 4 mM EGTA and 30 mM Tris to obtain a minimal ratio. […]
Besides the Ca^2+ free/Ca^2+ re-addition protocol, we also characterized the effect of STX564 in cells during activated SOCE in the presence of thapsigargin (TG, Fig. 2A,B) or upon stimulation via their TCR/CD3 complex (Fig. 2C). […]. […] Similarly, in Fig. 2C this effect of a partial or full recovery of SOCE was also observed, a few minutes after STX564 addition.

[1] = tested on: Mn2+ entry into Jurkat T cells; experiment: Mn2+ quenching of Fura2 after store depletion in Jurkat T cells; format: cell-based, human; settings: store depletion by thapsigargin, 10 μM
Description: Mn^2+ quenching of Fura2 was used to analyze influx of divalent cations into Jurkat T cells. Like for Ca^2+ measurements, 10^6 loaded Jurkat T-lymphocytes were pelleted and Ca^2+ buffer was exchanged for nominal Ca^2+ free buffer (see above). Instead of Ca^2+, Mn^2+ was added 1220 s after the start of the measurement. To investigate Mn^2+ quenching independently of any effects of Ca^2+, Fura2 was excited at its isosbestic point, which was experimentally determined to be 357 nm. The emission wavelength was set to 495 nm. In contrast to the Ca^2+ measurement experiments, these measurements were not calibrated.
For quantitative analysis, the velocity of quenching was calculated as the initial slope. After Mn^2+ addition, there was a very fast drop in Fura2 fluorescence in all experiments. This drop lasted for about 10 s and was probably due to quenching of extracellular Fura2. […]
y0 is the fluorescence at the start of the decay, P is the theoretical fluorescence at the end of the decay at infinite times, K is the rate constant, and x is the time. […]
The fluorescence before Mn^2+ addition was fitted to a straight line using the following equation:(4) y’=m·x+c
m is the slope, x is the time and c is the y-intercept. […] So the initial slope (si) after Mn^2+ addition was calculated using the following equation:(5) si=(y0–P)*(-K)*e(-K*1230s)–m

CCc1cc2c(cc1OS(N)(=O)=O)CC[C@@H]1[C@@H]2CC[C@]2(C)[C@@H](CC#N)CC[C@@H]12 [STX564, 2-ethyl-3-sulfamoyloxy-17β-cyanomethylestra-1,3,5(10)-triene]
IC50 (SOCE in Jurkat T cells; read-out: IC50 of SOCE inhibition during active SOCE, Jurkat T cells stimulated by 1 μM thapsigargin (TG)): 3 µM
IC50 (SOCE in Jurkat T cells; read-out: IC50 of SOCE inhibition during active SOCE, Jurkat T cells stimulated by 1 μg/ml αCD3 (OKT3)): 2 µM
extent of inhibition when added during activated SOCE (SOCE in Jurkat T cells; Jurkat T cells, TG or TCR/CD3 stimulation): only partial inhibition
antagonism of Mn2+ entry (Mn2+ quenching of Fura2) [1]: almost fully
